The record followed here is ChEMBL document CHEMBL3286226, “Discovery of thienopyrimidine-based FLT3 inhibitors from the structural modification of known IKKβ inhibitors” (Bioorg Med Chem Lett, 2014).

The test system of test [1] is RAW264.7. The experiment in a line: cells. The conditions noted are these: Mus musculus.
Description: Antiinflammatory activity against mouse RAW264.7 cells assessed as reduction of LPS-induced NO production
Test [2] relates to RAW264.7. As to the kind of experiment: cells. To be noted: Mus musculus. This is another data set of the same source.
Description: (§1) Antiinflammatory activity against mouse RAW264.7 cells assessed as reduction of LPS-induced TNF-alpha production
The subject of test [3] is RAW264.7.
Description: as §1
Test [4] concerns the target Tyrosine-protein kinase Lyn (Homo sapiens) (UniProt P07948). The experiment in a line: Inhibition of human Lyn assessed as residual activity at 10 uM relative to control.
The target in test [5] is Dual specificity mitogen-activated protein kinase kinase 7 (Homo sapiens) (UniProt O14733). As to the kind of experiment: Inhibition of human MKK7beta assessed as residual activity at 10 uM relative to control.
For test [6], the target named is Tyrosine-protein kinase JAK3 (Homo sapiens) (UniProt P52333). The experiment in a line: Inhibition of human JAK3 assessed as residual activity at 10 uM relative to control.
Test [7] has as its target Rho-associated protein kinase 2 (Homo sapiens) (UniProt O75116). As to the kind of experiment: Inhibition of human ROCK-2 assessed as residual activity at 10 uM relative to control.
Test [8] deals with Mitogen-activated protein kinase 12 (Homo sapiens) (UniProt P53778). The experiment in a line: Inhibition of human SAPK3 assessed as residual activity at 10 uM relative to control.
Test [9] has as its target Mitogen-activated protein kinase 14 (Homo sapiens) (UniProt Q16539). As to the kind of experiment: Inhibition of human SAPK2alpha assessed as residual activity at 10 uM relative to control.
Test [10] concerns the target Receptor-type tyrosine-protein kinase FLT3 (Homo sapiens) (UniProt P36888). The experiment in a line: Inhibition of human Flt3 assessed as residual activity at 10 uM relative to control.
For test [11], the target named is Ribosomal protein S6 kinase alpha-5 (Homo sapiens) (UniProt O75582). As to the kind of experiment: Inhibition of human MSK1 assessed as residual activity at 10 uM relative to control.
The target of test [12] is T1, Receptor-type tyrosine-protein kinase FLT3 (Homo sapiens, UniProt P36888).
T1 sequence (P36888 whole entry): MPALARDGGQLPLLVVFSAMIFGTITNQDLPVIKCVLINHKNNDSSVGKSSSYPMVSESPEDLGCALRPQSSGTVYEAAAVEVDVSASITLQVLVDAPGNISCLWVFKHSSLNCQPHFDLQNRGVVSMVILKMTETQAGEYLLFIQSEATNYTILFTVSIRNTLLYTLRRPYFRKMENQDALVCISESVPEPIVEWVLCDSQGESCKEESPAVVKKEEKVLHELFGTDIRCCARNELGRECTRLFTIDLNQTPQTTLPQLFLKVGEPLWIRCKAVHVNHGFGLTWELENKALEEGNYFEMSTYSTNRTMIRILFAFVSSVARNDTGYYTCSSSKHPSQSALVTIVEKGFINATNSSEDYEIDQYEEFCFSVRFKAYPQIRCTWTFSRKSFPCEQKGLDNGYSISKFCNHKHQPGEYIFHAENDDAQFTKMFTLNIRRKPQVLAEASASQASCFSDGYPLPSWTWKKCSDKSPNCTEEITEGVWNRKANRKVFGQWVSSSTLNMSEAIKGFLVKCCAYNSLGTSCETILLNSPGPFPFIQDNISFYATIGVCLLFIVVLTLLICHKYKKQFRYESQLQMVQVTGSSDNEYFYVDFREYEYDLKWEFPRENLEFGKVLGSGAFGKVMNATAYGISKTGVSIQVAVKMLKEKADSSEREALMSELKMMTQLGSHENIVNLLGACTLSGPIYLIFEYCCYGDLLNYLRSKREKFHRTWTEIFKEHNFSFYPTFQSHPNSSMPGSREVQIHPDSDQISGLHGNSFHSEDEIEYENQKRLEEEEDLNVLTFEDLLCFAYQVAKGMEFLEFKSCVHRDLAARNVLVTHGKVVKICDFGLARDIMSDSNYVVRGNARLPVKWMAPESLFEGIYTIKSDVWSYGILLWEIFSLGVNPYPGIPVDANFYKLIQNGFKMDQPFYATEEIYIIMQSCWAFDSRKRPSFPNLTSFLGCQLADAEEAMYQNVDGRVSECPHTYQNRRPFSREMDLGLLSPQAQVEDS
Description: Inhibition of FLT3 kinase (unknown origin)

Test [13] concerns the target Mitogen-activated protein kinase 9 (Homo sapiens) (UniProt P45984). As to the kind of experiment: Inhibition of human JNK2alpha2 assessed as residual activity at 10 uM relative to control.
A further test is filed under the species Homo sapiens. As to the kind of experiment: Inhibition of human PKA assessed as residual activity at 10 uM relative to control.
Test [14] deals with Tyrosine-protein kinase JAK1 (Homo sapiens) (UniProt P23458). The experiment in a line: Inhibition of human JAK1 assessed as residual activity at 10 uM relative to control.
Test [15] has as its target Tyrosine-protein kinase Lck (Homo sapiens) (UniProt P06239). The experiment in a line: Inhibition of human Lck assessed as residual activity at 10 uM relative to control.
Test [16] concerns the target Non-receptor tyrosine-protein kinase TYK2 (Homo sapiens) (UniProt P29597). The experiment in a line: Inhibition of human TYK2 assessed as residual activity at 10 uM relative to control.
Test [17] deals with Tyrosine-protein kinase BTK (Homo sapiens) (UniProt Q06187). The experiment in a line: Inhibition of human BTK assessed as residual activity at 10 uM relative to control.
Test [18] concerns the target Mitogen-activated protein kinase 11 (Homo sapiens) (UniProt Q15759). The experiment in a line: Inhibition of human SAPK2beta assessed as residual activity at 10 uM relative to control.
The target in test [19] is Dual specificity mitogen-activated protein kinase kinase 4 (Mus musculus) (UniProt P47809). The experiment in a line: Inhibition of mouse MKK4 assessed as residual activity at 10 uM relative to control.
For test [20], the target named is Inhibitor of nuclear factor kappa-B kinase subunit alpha (Homo sapiens) (UniProt O15111). The experiment in a line: Inhibition of human IKKalpha assessed as residual activity at 10 uM relative to control.
Test [21] concerns the target Dual specificity mitogen-activated protein kinase kinase 6 (Homo sapiens) (UniProt P52564). The experiment in a line: Inhibition of human MKK6 assessed as residual activity at 10 uM relative to control.
The target of test [22] is Mitogen-activated protein kinase 13 (Homo sapiens) (UniProt O15264). As to the kind of experiment: Inhibition of human SAPK4 assessed as residual activity at 10 uM relative to control.
For test [23], the target named is MAP kinase-activated protein kinase 2 (Homo sapiens) (UniProt P49137). The experiment in a line: Inhibition of human MAPKAP-K2 assessed as residual activity at 10 uM relative to control.
The target in test [24] is Inhibitor of nuclear factor kappa-B kinase subunit beta (Homo sapiens) (UniProt O14920). The experiment in a line: Inhibition of human IKKbeta assessed as residual activity at 1 uM relative to control.
Test [25] has as its target Mitogen-activated protein kinase 8 (Homo sapiens) (UniProt P45983). The experiment in a line: Inhibition of human JNK1alpha1 assessed as residual activity at 10 uM relative to control.
In test [26] the target is T2, Inhibitor of nuclear factor kappa-B kinase subunit beta (Homo sapiens, UniProt O14920).
T2 sequence (O14920 whole entry): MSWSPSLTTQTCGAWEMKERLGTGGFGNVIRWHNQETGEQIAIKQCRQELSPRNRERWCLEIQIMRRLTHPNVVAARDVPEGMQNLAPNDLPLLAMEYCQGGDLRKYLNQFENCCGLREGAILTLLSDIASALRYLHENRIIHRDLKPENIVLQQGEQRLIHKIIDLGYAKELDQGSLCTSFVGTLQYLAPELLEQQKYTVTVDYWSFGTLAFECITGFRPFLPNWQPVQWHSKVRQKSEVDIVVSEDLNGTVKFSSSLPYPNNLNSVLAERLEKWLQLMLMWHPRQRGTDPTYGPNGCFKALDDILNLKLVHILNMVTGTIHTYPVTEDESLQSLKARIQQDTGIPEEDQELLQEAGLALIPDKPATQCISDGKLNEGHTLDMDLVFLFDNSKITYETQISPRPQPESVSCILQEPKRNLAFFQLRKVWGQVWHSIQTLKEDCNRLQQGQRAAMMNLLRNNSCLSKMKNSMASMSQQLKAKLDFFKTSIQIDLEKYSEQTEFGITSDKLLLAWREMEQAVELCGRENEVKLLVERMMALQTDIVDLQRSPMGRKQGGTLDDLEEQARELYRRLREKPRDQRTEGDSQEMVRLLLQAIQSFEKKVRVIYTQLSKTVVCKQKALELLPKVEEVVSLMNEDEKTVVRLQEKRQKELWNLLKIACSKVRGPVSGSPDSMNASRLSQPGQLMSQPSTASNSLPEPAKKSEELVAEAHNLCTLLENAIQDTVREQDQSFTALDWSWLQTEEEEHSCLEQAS
Description: Inhibition of IKKbeta kinase (unknown origin) by Radioisotope system

Test [27] deals with T2, Inhibitor of nuclear factor kappa-B kinase subunit beta. The source holds these as a separate data set.
Description: Inhibition of IKKbeta kinase (unknown origin) by Lance ULight system

Mitogen-activated protein kinase 8 (Homo sapiens), sequence (P45983 whole entry): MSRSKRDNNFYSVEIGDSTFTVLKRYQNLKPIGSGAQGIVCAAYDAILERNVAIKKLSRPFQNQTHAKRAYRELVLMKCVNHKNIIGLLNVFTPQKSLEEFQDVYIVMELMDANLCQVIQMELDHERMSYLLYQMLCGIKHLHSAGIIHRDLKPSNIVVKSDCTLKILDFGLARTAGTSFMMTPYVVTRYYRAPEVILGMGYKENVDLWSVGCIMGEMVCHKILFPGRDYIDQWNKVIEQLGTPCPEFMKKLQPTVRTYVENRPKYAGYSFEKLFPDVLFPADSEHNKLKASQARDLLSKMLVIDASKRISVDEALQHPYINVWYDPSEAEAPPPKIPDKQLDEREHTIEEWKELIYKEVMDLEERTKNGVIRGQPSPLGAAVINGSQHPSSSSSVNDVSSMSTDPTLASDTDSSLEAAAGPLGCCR
Tyrosine-protein kinase BTK (Homo sapiens), sequence (Q06187 whole entry): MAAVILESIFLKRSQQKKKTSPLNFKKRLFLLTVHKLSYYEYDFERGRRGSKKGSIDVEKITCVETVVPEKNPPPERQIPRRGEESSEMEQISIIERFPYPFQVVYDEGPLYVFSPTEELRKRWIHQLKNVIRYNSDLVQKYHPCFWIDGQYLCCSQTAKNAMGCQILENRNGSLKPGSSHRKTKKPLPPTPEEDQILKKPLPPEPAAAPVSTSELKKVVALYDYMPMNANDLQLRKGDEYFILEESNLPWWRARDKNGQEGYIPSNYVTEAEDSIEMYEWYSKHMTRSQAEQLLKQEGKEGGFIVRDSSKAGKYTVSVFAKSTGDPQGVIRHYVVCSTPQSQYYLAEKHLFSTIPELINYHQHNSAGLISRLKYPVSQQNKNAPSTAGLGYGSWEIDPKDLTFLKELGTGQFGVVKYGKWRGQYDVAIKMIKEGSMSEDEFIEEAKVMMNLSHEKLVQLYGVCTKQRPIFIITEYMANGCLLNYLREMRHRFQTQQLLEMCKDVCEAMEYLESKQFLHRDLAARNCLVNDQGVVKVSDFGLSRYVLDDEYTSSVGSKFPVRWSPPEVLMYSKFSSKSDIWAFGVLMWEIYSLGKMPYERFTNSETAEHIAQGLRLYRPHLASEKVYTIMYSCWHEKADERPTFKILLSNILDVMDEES
Tyrosine-protein kinase JAK3 (Homo sapiens), sequence (P52333 whole entry): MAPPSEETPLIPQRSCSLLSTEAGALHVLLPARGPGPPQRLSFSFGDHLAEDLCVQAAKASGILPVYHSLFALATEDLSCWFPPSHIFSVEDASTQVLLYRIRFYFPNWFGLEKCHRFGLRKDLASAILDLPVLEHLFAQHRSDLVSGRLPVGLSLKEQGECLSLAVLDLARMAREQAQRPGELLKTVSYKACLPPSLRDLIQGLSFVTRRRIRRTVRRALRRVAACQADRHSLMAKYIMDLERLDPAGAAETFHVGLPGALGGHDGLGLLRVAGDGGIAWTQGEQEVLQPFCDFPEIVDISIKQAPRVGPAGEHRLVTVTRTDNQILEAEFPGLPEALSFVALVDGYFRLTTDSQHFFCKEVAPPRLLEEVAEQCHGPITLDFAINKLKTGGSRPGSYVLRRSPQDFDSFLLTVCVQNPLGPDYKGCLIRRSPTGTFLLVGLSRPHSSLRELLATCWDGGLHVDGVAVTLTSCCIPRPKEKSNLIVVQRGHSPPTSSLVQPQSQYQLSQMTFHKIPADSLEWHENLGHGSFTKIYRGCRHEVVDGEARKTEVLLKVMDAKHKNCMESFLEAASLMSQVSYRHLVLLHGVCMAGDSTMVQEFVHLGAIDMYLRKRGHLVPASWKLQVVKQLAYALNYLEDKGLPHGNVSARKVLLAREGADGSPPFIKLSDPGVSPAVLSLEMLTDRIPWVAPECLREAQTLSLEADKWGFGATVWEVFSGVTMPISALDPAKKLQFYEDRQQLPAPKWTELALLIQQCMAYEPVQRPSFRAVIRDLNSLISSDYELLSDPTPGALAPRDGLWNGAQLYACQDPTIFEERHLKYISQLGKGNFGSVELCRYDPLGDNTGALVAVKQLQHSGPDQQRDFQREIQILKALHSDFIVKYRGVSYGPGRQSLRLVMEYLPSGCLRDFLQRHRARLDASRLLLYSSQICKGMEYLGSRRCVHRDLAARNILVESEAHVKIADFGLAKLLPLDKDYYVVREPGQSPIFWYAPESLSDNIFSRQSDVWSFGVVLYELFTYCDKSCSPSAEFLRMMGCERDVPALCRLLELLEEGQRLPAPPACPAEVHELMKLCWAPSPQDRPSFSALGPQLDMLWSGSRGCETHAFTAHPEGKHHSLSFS
Tyrosine-protein kinase JAK1 (Homo sapiens), sequence (P23458 whole entry): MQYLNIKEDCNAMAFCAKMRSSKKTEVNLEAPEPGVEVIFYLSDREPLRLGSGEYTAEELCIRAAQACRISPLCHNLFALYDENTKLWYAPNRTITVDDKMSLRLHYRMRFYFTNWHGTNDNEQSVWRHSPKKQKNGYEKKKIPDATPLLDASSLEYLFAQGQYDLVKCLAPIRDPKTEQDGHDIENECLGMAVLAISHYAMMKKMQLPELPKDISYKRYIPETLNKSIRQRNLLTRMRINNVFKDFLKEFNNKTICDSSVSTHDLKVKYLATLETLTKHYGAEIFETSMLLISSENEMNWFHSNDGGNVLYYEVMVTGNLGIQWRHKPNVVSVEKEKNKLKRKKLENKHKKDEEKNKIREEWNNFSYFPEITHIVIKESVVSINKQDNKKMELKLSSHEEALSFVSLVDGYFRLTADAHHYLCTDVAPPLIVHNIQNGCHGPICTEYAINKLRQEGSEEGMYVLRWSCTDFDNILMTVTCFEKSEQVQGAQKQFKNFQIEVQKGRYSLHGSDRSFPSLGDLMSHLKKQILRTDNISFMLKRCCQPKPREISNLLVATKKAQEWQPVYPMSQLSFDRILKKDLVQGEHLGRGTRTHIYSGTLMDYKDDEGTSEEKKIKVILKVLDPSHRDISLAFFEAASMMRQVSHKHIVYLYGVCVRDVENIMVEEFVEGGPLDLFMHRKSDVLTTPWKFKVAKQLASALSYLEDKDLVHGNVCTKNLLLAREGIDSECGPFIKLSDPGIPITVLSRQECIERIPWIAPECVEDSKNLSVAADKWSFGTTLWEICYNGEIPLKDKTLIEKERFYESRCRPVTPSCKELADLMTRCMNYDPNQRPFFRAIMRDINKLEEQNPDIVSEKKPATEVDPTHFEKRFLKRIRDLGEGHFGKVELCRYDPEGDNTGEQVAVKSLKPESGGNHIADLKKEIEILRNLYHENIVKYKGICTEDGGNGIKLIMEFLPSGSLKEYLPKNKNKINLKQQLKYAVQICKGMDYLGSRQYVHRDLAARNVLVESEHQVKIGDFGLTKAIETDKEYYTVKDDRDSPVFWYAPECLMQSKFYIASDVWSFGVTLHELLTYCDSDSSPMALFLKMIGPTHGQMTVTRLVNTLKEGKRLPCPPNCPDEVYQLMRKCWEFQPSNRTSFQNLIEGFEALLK
Mitogen-activated protein kinase 12 (Homo sapiens), sequence (P53778 whole entry): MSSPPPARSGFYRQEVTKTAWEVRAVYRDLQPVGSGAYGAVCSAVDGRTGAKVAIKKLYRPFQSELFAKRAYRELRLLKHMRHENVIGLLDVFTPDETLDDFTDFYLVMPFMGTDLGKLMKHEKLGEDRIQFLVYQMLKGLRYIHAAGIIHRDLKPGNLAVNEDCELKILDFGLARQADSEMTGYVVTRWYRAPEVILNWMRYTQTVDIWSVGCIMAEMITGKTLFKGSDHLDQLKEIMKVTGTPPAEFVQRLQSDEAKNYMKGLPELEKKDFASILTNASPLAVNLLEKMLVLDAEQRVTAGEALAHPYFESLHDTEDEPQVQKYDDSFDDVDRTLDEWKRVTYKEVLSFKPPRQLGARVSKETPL
Mitogen-activated protein kinase 14 (Homo sapiens), sequence (Q16539 whole entry): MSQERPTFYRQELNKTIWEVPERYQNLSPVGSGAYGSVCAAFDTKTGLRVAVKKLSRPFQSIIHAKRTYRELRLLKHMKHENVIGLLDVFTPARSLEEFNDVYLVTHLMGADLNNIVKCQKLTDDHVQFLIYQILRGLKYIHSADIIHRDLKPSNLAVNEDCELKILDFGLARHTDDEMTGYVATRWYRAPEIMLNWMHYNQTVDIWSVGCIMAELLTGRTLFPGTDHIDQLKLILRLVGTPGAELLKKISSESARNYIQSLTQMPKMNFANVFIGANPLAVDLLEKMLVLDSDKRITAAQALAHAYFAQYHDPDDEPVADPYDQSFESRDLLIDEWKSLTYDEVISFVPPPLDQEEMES
Mitogen-activated protein kinase 13 (Homo sapiens), sequence (O15264 whole entry): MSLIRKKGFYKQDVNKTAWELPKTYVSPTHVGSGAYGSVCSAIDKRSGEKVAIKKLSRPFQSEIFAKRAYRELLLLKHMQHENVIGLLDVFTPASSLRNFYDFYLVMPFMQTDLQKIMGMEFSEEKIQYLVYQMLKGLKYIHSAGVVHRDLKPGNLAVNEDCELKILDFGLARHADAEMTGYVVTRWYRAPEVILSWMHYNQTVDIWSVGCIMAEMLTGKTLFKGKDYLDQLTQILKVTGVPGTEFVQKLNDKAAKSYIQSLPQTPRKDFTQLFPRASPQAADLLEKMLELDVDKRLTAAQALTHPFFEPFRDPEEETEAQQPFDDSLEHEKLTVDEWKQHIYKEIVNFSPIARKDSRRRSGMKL
Dual specificity mitogen-activated protein kinase kinase 6 (Homo sapiens), sequence (P52564 whole entry): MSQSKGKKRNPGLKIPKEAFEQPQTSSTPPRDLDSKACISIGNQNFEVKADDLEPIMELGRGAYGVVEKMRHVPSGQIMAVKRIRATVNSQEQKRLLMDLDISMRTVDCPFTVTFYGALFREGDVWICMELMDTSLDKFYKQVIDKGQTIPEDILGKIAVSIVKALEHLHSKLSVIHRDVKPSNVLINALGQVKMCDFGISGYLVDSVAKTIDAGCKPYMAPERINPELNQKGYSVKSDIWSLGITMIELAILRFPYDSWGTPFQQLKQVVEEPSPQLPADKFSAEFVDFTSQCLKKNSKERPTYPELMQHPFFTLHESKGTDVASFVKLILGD

Consider `CC1=CC(=O)N(Nc2nc(-c3ccco3)nc3scc(-c4cccs4)c23)C1=O`, for which the IC50 with RAW264.7 [1] was 5250 nM; in the test with RAW264.7 [2] it was 3960 nM.

`O=C1c2ccccc2C(=O)N1Nc1ncnc2scc(-c3cccs3)c12`: the results for the IC50 in the test on RAW264.7 [1] and in the test on RAW264.7 [3] were greater than 10000 nM and “Not Active”, respectively.

In the case of `CC1=CC(=O)N(Nc2nc(-c3cccs3)nc3scc(-c4cccc(OCCN5CCCCC5)c4)c23)C1=O`, the Activity in test [4] turned out to be 81%; in test [5] it was 108%; in test [6], 112%; in [7], 96%; in test [8], 99%; in test [9] it was 96%. In addition, the Activity was found to be 4% in test [10]; 102% in [11]; 117% in [13]; 126% in the test listed under Homo sapiens; 111% in test [14]; 74% in test [15]. In addition, the Activity in test [16] was determined as 87%; in test [17], 100%; in [18] it was 103%; in test [19], 112%; in test [20], 98%; in test [21], 96%. The Activity in test [22] came out at 100%; in test [23] it was 94%; in [24], 84%; in test [25] it was 93%. Moreover, the IC50 in the test with RAW264.7 [1] was 2150 nM; in test [12] it was 133 nM; in the test on RAW264.7 [2], 2920 nM.

Turning to `O=C1c2ccncc2C(=O)N1Nc1ncnc2scc(-c3cccs3)c12`, the results for the IC50 in the test on RAW264.7 [1] and in the test with RAW264.7 [3] were greater than 10000 nM and “Not Active”, respectively.

Take `CC1=CC(=O)N(Nc2nc(-c3cccs3)nc3scc(-c4ccc(OCCN5CCCCC5)cc4)c23)C1=O.Cl`: the IC50 in the test with RAW264.7 [1] is 1680 nM; in [12], 85 nM; in test [26], “Not Active”; in the test on RAW264.7 [2], 2140 nM.

On to `COc1ccc(-c2nc(NN3C(=O)C=C(C)C3=O)c3c(-c4cccs4)csc3n2)cc1`, for which the IC50 in the test with RAW264.7 [1] is 2790 nM; in the test with RAW264.7 [2] it was 1390 nM.

For the compound `CC1=CC(=O)N(Nc2nc(-c3ccncc3)nc3scc(-c4cccs4)c23)C1=O`, the IC50 in the test on RAW264.7 [1] was 2110 nM; in the test with RAW264.7 [2], greater than 10000 nM.

`COc1cccc(-c2nc(NN3C(=O)C=C(C)C3=O)c3c(-c4cccs4)csc3n2)c1`: the IC50 with RAW264.7 [1] amounted to 3470 nM; with RAW264.7 [2], 1240 nM.

`O=C1C=CC(=O)N1Nc1ncnc2scc(-c3cccs3)c12`: the IC50 in the test on RAW264.7 [1] was greater than 10000 nM; in the test with RAW264.7 [3], “Not Active”.

For the compound `CC1=CC(=O)N(Nc2nc(-c3cccs3)nc3sccc23)C1=O`, the 50% inhibitory concentration (IC50) in the test on RAW264.7 [1] is 6980 nM; in test [26], “Not Active”; in test [27], greater than 50000 nM; in the test on RAW264.7 [2], 8950 nM.

Turning to `COc1cccc2nc(-c3cccs3)nc(NN3C(=O)C=C(C)C3=O)c12` [AS-602868], the IC50 with RAW264.7 [1] worked out at 4410 nM; in the test on RAW264.7 [2], 3320 nM.

As for `CCOC(=O)Cc1csc2nc(-c3cccs3)nc(NN3C(=O)C=C(C)C3=O)c12`, the IC50 with RAW264.7 [1] is 5070 nM; in test [12] it was 673 nM; in test [26], “Not Active”; in test [27], greater than 50000 nM; in the test with RAW264.7 [2], 5230 nM.

For the compound `CC1=CC(=O)N(Nc2nc(-c3cccs3)nc3scc(-c4cccs4)c23)C1=O`, the IC50 in the test on RAW264.7 [1] was determined as 2190 nM; with RAW264.7 [2] it was 710 nM.

Regarding `CC1=CC(=O)N(Nc2nc(C3CC3)nc3scc(-c4cccs4)c23)C1=O`, the IC50 is 3120 nM in the test on RAW264.7 [1] and 4350 nM in the test on RAW264.7 [2].

Turning to `CC1=CC(=O)N(Nc2nc(-c3cccs3)nc3scc(-c4cccc(O)c4)c23)C1=O`, the IC50 in the test on RAW264.7 [1] was 1230 nM; in test [12], 488 nM; in test [26], “Not Active”; with RAW264.7 [2], 2670 nM.

Consider `CC1=CC(=O)N(Nc2nc(-c3cccs3)nc3scc(-c4ccc(O)cc4)c23)C1=O`, for which the IC50 with RAW264.7 [1] is 820 nM; in test [12], 750 nM; in test [26] it was “Not Active”; in the test with RAW264.7 [2], 1320 nM.

`CC1=CC(=O)N(Nc2ncnc3scc(-c4cccs4)c23)C1=O`: the IC50 was 2490 nM with RAW264.7 [1] and greater than 10000 nM with RAW264.7 [2].

As to `CC1=C(C)C(=O)N(Nc2ncnc3scc(-c4cccs4)c23)C1=O`, the IC50 with RAW264.7 [1] was greater than 10000 nM; in the test with RAW264.7 [3] it was “Not Active”.

Take `CC1=CC(=O)N(Nc2nc(-c3ccccc3)nc3scc(-c4cccs4)c23)C1=O`: the IC50 is 3130 nM in the test on RAW264.7 [1] and 1130 nM in the test with RAW264.7 [2].
